Earlier results on 3 compounds are cited in patent US9731015B2, “Water-soluble lipophilic natural compound formulations” (priority 2012, dated 2017).

For series [1] the following is noted: background statement.
The conditions of series [2]: humans, up to 4 g.
The conditions of series [3]: animal pharmacokinetic studies.

`COC1=C(OC)C(=O)C(C/C=C(\C)CC/C=C(\C)CC/C=C(\C)CC/C=C(\C)CC/C=C(\C)CC/C=C(\C)CC/C=C(\C)CC/C=C(\C)CC/C=C(\C)CCC=C(C)C)=C(C)C1=O` [Co-enzyme Q-10, ubidecarenone]: in series [1], the solubility in water entry is “insoluble in water”.
Regarding `O=c1c(O)c(-c2ccc(O)c(O)c2)oc2cc(O)cc(O)c12` [quercetin], the “quercetin in plasma after oral administration” value in series [2] is on record as “No quercetin could be found in plasma”.
Consider `Oc1ccc(C=Cc2cc(O)cc(O)c2)cc1` [resveratrol, 3,5,4′-trihydroxystilbene], for which, in series [3], the “bioavailability of oral doses” value is recorded as “very low bioavailability”. In series [1], the solubility in water result was “virtually insoluble in water”.
